Test results taken from PMC8962335, “In Vivo Evaluation of ECP Peptide Analogues for the Treatment of Acinetobacter baumannii Infection” (Biomedicines, 2022).
Values joined by “and” are separate entries in the source; they are usually repeats but may differ in a detail not shown here. Equal entries are not always repeated.

Columns and labels:
[1] = system: E. coli; assay type: cell-based, Escherichia coli; conditions: 24 h incubation, MHB, triplicate
Text: (§1) A. baumannii strain (CECT 452, Valencia, Spain, ATCC 15308, Manassas, VA, USA) and Pseudomonas aeruginosa (P. aeruginosa) strain (CECT 4122, Valencia, Spain, ATCC 15692, Manassas, VA, USA) were from the Colección Española de Cultivos Tipo (CECT, Valencia, Spain). The Escherichia coli (E. coli) BL21 (DE3) strain was from Novagen (Darmstadt, Germany). MRC-5 cells were from the American Type Culture Collection (ATCC, Manassas, VA, USA) and HEK293T cell line was kindly provided by Dr. Raquel Pequerul (UAB, Barcelona, Spain).
(§2) The MIC is defined as the lowest concentration of one reagent to prevent visible growth of bacteria. The MIC determination was followed by the protocol described previously. Briefly, bacteria in exponential growth were used to prepare a suspension in MHB with the approximate number of 5 × 10^5 CFU/mL. Next, an aliquot of 90 μL of bacteria suspension was added into each well of the 96-well polypropylene plate. Immediately, 10 μL of peptide diluted by 0.01% acetic acid was added to the corresponding well to have a final concentration ranging from 20 to 0.16 μM. The plate was incubated for 24 h at 37 °C, 100 rpm. The presence or absence of bacterial growth was visually inspected and confirmed by reading OD600 with Tecan Microplate Reader Spark®. Each test was performed in triplicate.

[2] = system: P. aeruginosa; assay type: cell-based, Pseudomonas aeruginosa; conditions: 24 h incubation, MHB, triplicate
Text: as §1, §2

[3] = system: A. baumannii; assay type: cell-based, Acinetobacter baumannii; conditions: 24 h incubation, MHB, triplicate
Text: as §1, §2

[4] = system: LPSRa (LPS from E. coli EH100, Ra mutant); test: LPS affinity assay (BODIPY TR cadaverine displacement); assay type: binding; conditions: 50% of BC probe bound to LPS displaced; Mean ± SE
Text: (§3) Lipopolysaccharides (LPS) from E. coli O111:B4 (O-LPS), EH100 (Ra mutant), and J5 (Rc mutant), porcine mucin, Mueller Hinton broth (MHB) and Thiazolyl Blue Tetrazolium […] (MTT) were purchased at Sigma-Aldrich (Saint Louis, MO, USA). Colistin sulphate and Dimethyl sulfoxide (DMSO) were from Apollo Scientific (Stockport, UK). BODIPY® TR cadaverine (BC) were from Molecular Probes (Eugene, OR, USA). Mouse TNF-α ELISA Kit (MBS175787, MyBioSource, San Diego, CA, USA) and Mouse LPS ELISA Kit (MBS7700668, MyBioSource, San Diego, CA, USA) were from bioNova científica s.l. (Madrid, Spain) Human TNF-α ELISA set was from BD Biosciences (555212, BD OptEIA^TM, San Jose, CA, USA). Aspidasept® (pep19-2.5) is an antibacterial/anti-inflammatory peptide drug ([…], with C-terminal amide).
(§4) The LPS affinity was assessed using the fluorescent probe BC by an adaptation of the displacement assay reported. Peptides and colistin were serially diluted in a 96-well fluorescence plate from 20 to 0.16 μM in Tris/HCl 50 mM PH 7.4. Next, LPS and BC diluted in the same buffer were added to have the final concentration of 50 μg/mL and 5 μM, respectively. Fluorescence measurements were performed on Tecan Microplate Reader Spark® at 580 nm of excitation wavelength and 620 nm of the emission wavelength at 5 nm for optimal gain. Each test was performed in triplicate.

[5] = system: LPSRc (LPS from E. coli J5, Rc mutant); test: as above; assay type: binding; conditions: 50% of BC probe bound to LPS displaced; Mean ± SE
Text: as §3, §4

[6] = system: O-LPS (LPS from E. coli O111:B4); test: as above; assay type: binding; conditions: 50% of BC probe bound to LPS displaced; Mean ± SE
Text: as §3, §4

[7] = system: MRC-5 cells; test: Cytotoxicity assay (MTT); conditions: MTT, Mean ± SE, N.D. = no reduction in cell viability detected at the highest concentration
Protocol: (§5) Cytotoxicity was measured for the MRC-5 and HEK293T cell lines by MTT assay. Cells were grown in 5% CO2 at 37 °C with MRC-5 cell line maintained in MEMα and HEK293T in DMEM/F-12 media, both of which were supplemented with 10% FBS. The cells were passaged in 25 cm^2 or 75 cm^2 flasks to prepare 96-well plates with 3 × 10^4 cells/well, which were incubated overnight. Next, serial dilutions of ECPep-D and ECPep-2D-Orn were added to have a final concentration ranging from 100 to 0.78 μM (375 μg/mL to 3 μg/mL) and colistin was added at final concentrations ranging from 300 to 2.34 μM (380 μg/mL to 3 μg/mL) in corresponding wells. After incubation to the specified time, the medium of the plate was replaced by fresh medium containing 0.5 mg/mL MTT solution and the mixture was incubated for 2.5 h in 5% CO2 at 37 °C. The medium was then removed, and formazan was dissolved by adding DMSO. The optical density (OD) was recorded by using a Victor^3 plate reader (PerkinElmer, Waltham, MA, USA) set at 540 nm and 620 nm as a reference. Each test was performed in triplicate.

[8] = system: HEK293T cells
Protocol: as §5

[9] = system: A. baumannii; test: Efficacy assay in murine acute systemic infection model (survival); assay type: in vivo, Balb/c mice; conditions: 10^8 CFU/kg A. baumannii, colistin 15 mg/kg
Protocol: An aliquot from an A. baumannii stock stored in 15% glycerol at −80 °C was taken to culture in 3 mL LB overnight at 250 rpm, 37 °C. Next, OD600 reading of A. baumannii overnight culture was performed to adjust to the number of bacteria required (CFU/mL) and then diluted by half with the same volume of 10% porcine mucin, to obtain a solution of selected CFU/mL in 5% mucin for mice inoculation. […] The inoculating volume was decided based on the body weight of each animal (10 mL/kg).
When the sum of the scores reached a maximum value of 7, the mice were euthanized following ethical principles. The infection was first tested at a concentration of 10^9 CFU/kg and then set at 10^7 CFU/kg and 10^8 CFU/kg. […] We also performed an extra assay where mice infected by 10^8 CFU/kg of A. baumannii were treated with colistin, used as a positive control.
To avoid bias, the reagents for these four groups were given to technicians in advance and renumbered randomly, designated as A, B, C, D, respectively. […]
The clinical symptoms were assessed through a scoring system, which contains 9 items, including changes of body weight, behavior, breathing, skin, hair, eyes and gastrointestinal status (see full list at Table S2). […] During the study, when an animal obtained a score of 3 in any of the parameters assessed with a maximum score of 3, euthanasia was carried out to apply the endpoint criteria. […]

[10] = system: LPS; test: LPS in serum of infected mice by ELISA; assay type: in vivo, Balb/c mice; conditions: second efficacy assay, colistin 15 mg/kg versus ECPep-D 20 mg/kg, p < 0.1
Protocol: In the second efficacy study, the blood of animals that either died for severe clinical symptoms or were euthanized at the end of the assay, were collected for testing TNF-α and LPS levels by ELISA. In order to check the levels of TNF-α and free LPS, only serum was analyzed, after discarding blood cells by centrifugation. The blood from mice was centrifuged at 3200 rpm for 30 min and the supernatants were collected carefully to ensure that there were no sediments left. Mouse ELISA kits for TNF-α and LPS were used.
According to the description of the manufacturer, LPS level determination is based on the principle of double antibody sandwich technology, where the microplates pre-coated with specific antibodies were used. Following addition of serum samples to the wells, the HRP-Conjugate reagent was added to form an immune complex. After incubation and washing, the unbound enzyme was removed. Then, chromogen substrates were added successively and optical density was recorded using microplate reader set at 450 nm. Sample readings were corrected using the baseline corresponding to serum of mice neither infected nor treated. A calibration standard curve was prepared and final calculated values were positively correlated with the concentration of LPS. Two replicates were performed according to the protocols for the representation of the standard curve and the sample testing.

[11] = cited from earlier work

## Colistin sulphate [reference compound]
[1]
  MIC E. coli: 5 μM and 6.34 μg/mL
[2]
  MIC P. aeruginosa: 0.31 μM and 0.40 μg/mL
[3]
  MIC A. baumannii: 0.31 μM and 0.40 μg/mL
[4]
  EC50: 13.1 ± 0.4 µM
  EC50 LPSRa: 16.63 ± 0.50 µg/mL
[5]
  EC50: 19.2 ± 0.34 µM
  EC50 LPSRc: 24.31 ± 0.42 µg/mL
[6]
  EC50: 7.87 ± 0.33 µM
  EC50 O-LPS: 9.97 ± 0.42 µg/mL
[7]; 24 h
  LD50 (MRC-5) 24 h: >300 μM and >380.26 μg/mL
[7]; 48 h
  LD50 (MRC-5) 48 h: >300 μM and >380.26 μg/mL
[8]; MTT, Mean ± SE
  IC50 (HEK293T) 48h: > 380.26 µg/mL
[8]; read-out: IC50 (HEK293T) 48h, MTT, Mean ± SE
  IC50: > 300 µM
[9]; i.p. once every 24 h for 3 days from 2 h post inoculum, peptides 10 mg/kg, 3 days
  survival rate, first efficacy assay: 100%
[9]; single i.p. dose 2 h post inoculum, peptides 20 mg/kg, 72 h
  survival rate after 3 days (72 h), second efficacy assay: 100%
[10]
  concentration of LPS in serum, Day 3: slightly increased
[11]; Swiss albino mice, single injection
  LD50 by intraperitoneal administration: 20 to 30 mg/kg
[11]; mice receiving 32 mg/(kg × day), after three doses
  deaths from neurotoxicity: three of twelve mice died
[11]; mice, ref U.S. National Library of Medicine ChemIDplus 1264-72-8
  LD50 for the intraperitoneal route: 21.8 mg/kg
